# Data: ChEMBL document CHEMBL1144007, “Activity of Mannich bases of 7-hydroxycoumarin against Flaviviridae” (Bioorg Med Chem, 2008)
# Calls of active or inactive are those of the source. The rule behind the calls is not given here.
# Tests used:
# [1] = system: Vesicular stomatitis virus; experiment: Antiviral activity against vesicular stomatitis virus; type: functional, organism-based
# Vaccinia virus = experiment: Antiviral activity against vaccinia virus; type: functional, organism-based; conditions: Orthopoxvirus vaccinia
# Reovirus sp. = experiment: Antiviral activity against Reovirus; type: functional, organism-based
# [2] = system: Human immunodeficiency virus 1; experiment: Antiviral activity against HIV1; type: functional, organism-based
# [3] = Cytotoxicity against human MT4 cells after 96 hrs by MTT method; type: cell-based
# [4] = system: Bovine viral diarrhea virus 1; experiment: Antiviral activity against BVDV NADL in MDBK cells assessed as protection from virus-induced cytopathogenicity by MTT method; type: functional, organism-based; conditions: Bovine viral diarrhea virus isolates and strains
# Yellow fever virus = experiment: Antiviral activity against YFV in BHK cells assessed as protection from virus-induced cytopathogenicity by MTT method; type: functional, organism-based
# [5] = system: Respiratory syncytial virus; experiment: Antiviral activity against RSV A2 in VERO76 cells assessed as reduction of plaque number by MTT method; type: functional, organism-based; conditions: human respiratory syncytial virus, A2, Vero 76
# Poliovirus 1 = experiment: Antiviral activity against Human poliovirus 1 Sabin; type: functional
SMILES,Activity [1],Activity (Vaccinia virus),Activity (Reovirus sp.),Activity [2],CC50 at 96 h [3] [µM],EC50 [4] [µM],EC50 (Yellow fever virus) [µM],EC50 [5] [µM],Activity (Poliovirus 1)
O=C(Oc1ccc2ccc(=O)oc2c1CN1CCc2ccccc2C1)c1ccccc1,inactive,inactive,inactive,inactive,> 100,> 100,> 100,1,inactive
C[C@@]1(O)[C@H](O)[C@@H](CO)O[C@H]1n1cnc2c(=O)[nH]c(N)nc21 [2'-B-METHYL-GUANOSINE],inactive,inactive,inactive,inactive,> 100,4,1,> 100,inactive
Cc1cc(=O)oc2c(CN3CCc4ccccc4C3)c(OC(=O)c3ccccc3)ccc12,inactive,inactive,inactive,inactive,> 100,> 100,> 100,18,inactive
Cc1cc(=O)oc2c(CN3CCOCC3)c(O)ccc12,inactive,inactive,inactive,inactive,> 100,> 100,> 100,> 100,inactive
CCCOc1ccc2c(C)cc(=O)oc2c1CN1CCOCC1,inactive,inactive,inactive,inactive,> 100,> 100,> 100,> 100,inactive
O=c1ccc2ccc(O)c(CN3CCN(C/C=C/c4ccccc4)CC3)c2o1,inactive,inactive,inactive,inactive,5,> 24,> 59,> 100,inactive
O=c1ccc2ccc(O)c(CN3CCc4ccccc4C3)c2o1,inactive,inactive,inactive,inactive,> 100,> 100,> 100,> 100,inactive
CC(=O)c1ccc(N2CCN(Cc3c(O)ccc4ccc(=O)oc34)CC2)cc1,inactive,inactive,inactive,inactive,18,> 100,> 100,> 100,inactive
CCN(CC)c1oc2ccc3ccccc3c2c(=O)c1Cc1c(OC(C)=O)ccc2ccc(=O)oc12,inactive,inactive,inactive,inactive,> 100,> 100,> 100,> 100,inactive
COCCN(CCOC)c1oc2ccc3ccccc3c2c(=O)c1Cc1c(OC(C)=O)ccc2ccc(=O)oc12,inactive,inactive,inactive,inactive,> 100,78,100,5,inactive
Cc1cc(=O)oc2c(CN3CCN(C)CC3)c(O)ccc12,inactive,inactive,inactive,inactive,> 100,> 100,> 100,> 100,inactive
O=c1ccc2ccc(O)c(CN3CCOCC3)c2o1,inactive,inactive,inactive,inactive,> 100,> 100,> 100,> 100,inactive
O=c1ccc2ccc(O)c(CN3CCN(Cc4ccc5c(c4)OCO5)CC3)c2o1,inactive,inactive,inactive,inactive,13,> 100,> 100,> 100,inactive
CC(=O)Oc1ccc2c(C)cc(=O)oc2c1Cc1c(N(C)C)oc2ccc3ccccc3c2c1=O,inactive,inactive,inactive,inactive,> 100,> 100,> 100,> 13,inactive
Cc1cc(=O)oc2c(CN3CCc4ccccc4C3)c(O)ccc12,inactive,inactive,inactive,inactive,> 100,> 100,> 100,> 100,inactive
CC(=O)Oc1ccc2ccc(=O)oc2c1Cc1c(N2CCCCC2)oc2ccc3ccccc3c2c1=O,inactive,inactive,inactive,inactive,> 100,59,77,40,inactive
COc1ccc2c(=O)c(Cc3c(OC(C)=O)ccc4c(C)cc(=O)oc34)c(N(C)C)oc2c1,inactive,inactive,inactive,inactive,42,> 28,> 100,25,inactive
COc1ccc2c(=O)c(Cc3c(O)ccc4ccc(=O)oc34)c(N3CCCC3)oc2c1,inactive,inactive,inactive,inactive,> 100,> 100,> 100,> 100,inactive
CCCOc1ccc2ccc(=O)oc2c1CN1CCc2ccccc2C1,inactive,inactive,inactive,inactive,11,,> 19,> 25,inactive
O=c1cnn([C@@H]2O[C@H](CO)[C@@H](O)[C@H]2O)c(=O)[nH]1 [6-AZAURIDINE],inactive,inactive,inactive,inactive,0.2,> 25,25,1,inactive
CCN(CC)c1oc2cc(OC(C)=O)ccc2c(=O)c1Cc1c(OC(C)=O)ccc2c(C)cc(=O)oc12,inactive,inactive,inactive,inactive,44,> 100,> 100,11,inactive
CC(=O)Oc1ccc2c(C)cc(=O)oc2c1Cc1c[nH]c2ccccc12,inactive,inactive,inactive,inactive,100,≥ 100,> 81,> 100,inactive
CCCCCCCCOc1ccc2c(=O)c(Cc3c(OC(C)=O)ccc4c(C)cc(=O)oc34)c(N(CC)CC)oc2c1,inactive,inactive,inactive,inactive,> 100,> 100,> 100,> 100,inactive
CC(=O)Oc1ccc2c(C)cc(=O)oc2c1Cc1c(C)n(C)c2ccccc12,inactive,inactive,inactive,inactive,24,> 40,> 58,26,inactive
CCC(=O)Oc1ccc2ccc(=O)oc2c1Cc1c(-c2ccccc2)[nH]c2ccccc12,inactive,inactive,inactive,inactive,> 100,> 100,> 82,> 100,inactive
COc1ccc2c(=O)c(Cc3c(O)ccc4c(C)cc(=O)oc34)c(N3CCCC3)oc2c1,inactive,inactive,inactive,inactive,> 100,> 100,> 100,> 100,inactive
CCC(=O)Oc1ccc2c(C)cc(=O)oc2c1Cc1c(C)[nH]c2ccccc12,inactive,inactive,inactive,inactive,31,> 87,> 100,45,inactive
CCCOc1ccc2c(C)cc(=O)oc2c1CN1CCN(c2ccc(C(C)=O)cc2)CC1,inactive,inactive,inactive,inactive,25,8,> 100,> 100,inactive
